Data on four molecules can be found in patent US8574563B2 (Bristol-Myers Squibb Company, priority 2006, dated 2013).

Where two headings read alike, the source gives them in different places.

This experiment concerns HCV 1b-377-neo replicon cells. The experiment in a line: HCV replicon assay, HCV 1b-377-neo replicon cells (1b FRET). It is filed as cell-based, Hepatitis C virus genotype 1b. The conditions noted are these: HCV 1b-377-neo replicon cells, HCV 1b genotype, read-out: EC50 range against HCV 1b (Table 2, Range). The gist of the method: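 Compounds tested in HCV genotype 1b-377-neo replicon cells with a FRET read-out. Cells resistant to a reference NS5A inhibitor through a Y2065H NS5A mutation were run alongside wild-type cells.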

In the case of `COCC[C@H](NC(=O)OC)C(=O)N1CCC[C@H]1c1ncc(-c2ccc(-c3ccc(-c4cnc([C@@H]5CCCN5C(=O)[C@H](CCOC)NC(=O)OC)[nH]4)cc3)cc2)[nH]1` [cj-156, methyl ((1S)-3-methoxy-1-(((2S)-2-(5-(4′-(2-((2S)-1-(N-(methoxycarbonyl)-O-methyl-L-homoseryl)-2-pyrrolidinyl)-1H-imidazol-5-yl)-4-biphenylyl)-1H-imidazol-2-yl)-1-pyrrolidinyl)carbonyl)propyl)carbamate], the concentration for a half-maximal effect (EC50) (Hepatitis C virus) fell in the range of 0.001 to 0.999 nM.

Regarding “(1R)-N,N-dimethyl-2-((2S)-2-(5-(4′-(2-((2S)-1- ((2R)-2-(4-morpholinyl)-2-phenylacetyl)-2- pyrrolidinyl)-1H-imidazol-5-yl)-4-biphenylyl)- 1H-imidazol-2-yl)-1-pyrrolidinyl)-2-oxo-1- phenylethanamine [Example 89]”, the EC50 fell in the range of 0.001 to 0.999 nM.

“methyl (2-((2S)-2-(5-(4′-(2-((2S)-1-((2R)-2- (dimethylamino)-2-phenylacetyl)-2- pyrrolidinyl)-1H-imidazol-5-yl)-4-biphenylyl)- 1H-imidazol-2-yl)-1-pyrrolidinyl)-2- oxoethyl)carbamate [Example 91]”: the EC50 is 0.001 to 0.999 nM.

As to “methyl ((1R)-2-((2S)-2-(5-(4′-(2-((2S)-1-(3- benzoylbenzyl)-2-pyrrolidinyl)-1H- imidazol-5-yl)-4-biphenylyl)-1H-imidazol-2- yl)-1-pyrrolidinyl)-2-oxo-1- phenylethyl)carbamate [Example 84-34]”, the EC50 is 1 to 99 nM.
